Laboratory results published in patent US11780893B2, “Kv1.3 blockers” (Zealand Pharma A/S, priority 2019, dated 2023).
Bridge positions count the residues as written; N and C are the ends. Peptide text beside a SMILES is read from it.

Assays:
Test in all cases: cell-based
Kv1.3 = target: T1, Kv1.3 (Homo sapiens, UniProt P22001); conditions: CHO cells, whole-cell patch clamp; read-out: Potency IC50 (nM) Kv1.3
T1 construct: expressed in transfected cells; host or cells: Chinese Hamster Ovary (CHO)
T1 sequence (P22001 whole entry): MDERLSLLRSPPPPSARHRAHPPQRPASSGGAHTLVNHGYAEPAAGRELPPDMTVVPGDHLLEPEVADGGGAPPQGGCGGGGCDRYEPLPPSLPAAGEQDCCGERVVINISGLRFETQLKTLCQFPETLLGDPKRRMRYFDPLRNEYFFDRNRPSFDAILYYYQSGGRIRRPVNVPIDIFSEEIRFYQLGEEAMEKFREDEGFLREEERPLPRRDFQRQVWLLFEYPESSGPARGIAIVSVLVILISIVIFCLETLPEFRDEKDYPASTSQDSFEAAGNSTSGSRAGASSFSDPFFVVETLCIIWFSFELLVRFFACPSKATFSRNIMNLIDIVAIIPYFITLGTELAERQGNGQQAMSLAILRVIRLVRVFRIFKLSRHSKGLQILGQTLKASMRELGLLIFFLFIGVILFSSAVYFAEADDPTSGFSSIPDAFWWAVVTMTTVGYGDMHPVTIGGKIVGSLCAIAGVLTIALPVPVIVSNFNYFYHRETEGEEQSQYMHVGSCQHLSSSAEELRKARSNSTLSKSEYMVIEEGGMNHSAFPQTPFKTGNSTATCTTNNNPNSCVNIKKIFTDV

[1] = target: T2, human Kv1.3 voltage-gated K+ channel (Homo sapiens, UniProt P22001); conditions: inhibition of thallium flux, CHO-DUKX cells with human Kv1.3; read-out: IC50
T2 construct: host or cells: CHO-DUKX
T2 sequence (P22001 whole entry): as above

Kv1.1 = target: T3, Kv1.1 (Homo sapiens, UniProt Q09470); conditions: for IC50: CHO cells, whole-cell patch clamp, read-out: Potency IC50 (nM) Kv1.1; for Selectivity Kv1.1/Kv1.3: ratio IC50[Kv1.1]/IC50[Kv1.3]
T3 construct: expressed in transfected cells; host or cells: Chinese Hamster Ovary (CHO)
T3 sequence (Q09470 whole entry): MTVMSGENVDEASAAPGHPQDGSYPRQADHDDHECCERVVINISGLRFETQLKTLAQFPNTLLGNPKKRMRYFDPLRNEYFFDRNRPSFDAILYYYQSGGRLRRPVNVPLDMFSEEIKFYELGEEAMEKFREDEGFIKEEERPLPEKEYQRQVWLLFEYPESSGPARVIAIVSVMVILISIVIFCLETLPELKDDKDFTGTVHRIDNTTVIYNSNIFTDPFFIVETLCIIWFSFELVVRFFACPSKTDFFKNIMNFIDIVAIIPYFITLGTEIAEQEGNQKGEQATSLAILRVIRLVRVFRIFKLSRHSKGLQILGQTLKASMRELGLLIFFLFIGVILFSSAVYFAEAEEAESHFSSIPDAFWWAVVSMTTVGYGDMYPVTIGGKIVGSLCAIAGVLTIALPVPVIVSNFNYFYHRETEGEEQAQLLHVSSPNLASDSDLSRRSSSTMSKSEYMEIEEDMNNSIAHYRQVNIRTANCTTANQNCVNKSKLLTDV

Kv1.6 = target: T4, Kv1.6 (Homo sapiens, UniProt P17658); conditions: for IC50: CHO cells, whole-cell patch clamp, read-out: Potency IC50 (nM) Kv1.6; for Selectivity Kv1.6/Kv1.3: ratio IC50[Kv1.6]/IC50[Kv1.3]
T4 construct: expressed in transfected cells; host or cells: Chinese Hamster Ovary (CHO)
T4 sequence (P17658 whole entry): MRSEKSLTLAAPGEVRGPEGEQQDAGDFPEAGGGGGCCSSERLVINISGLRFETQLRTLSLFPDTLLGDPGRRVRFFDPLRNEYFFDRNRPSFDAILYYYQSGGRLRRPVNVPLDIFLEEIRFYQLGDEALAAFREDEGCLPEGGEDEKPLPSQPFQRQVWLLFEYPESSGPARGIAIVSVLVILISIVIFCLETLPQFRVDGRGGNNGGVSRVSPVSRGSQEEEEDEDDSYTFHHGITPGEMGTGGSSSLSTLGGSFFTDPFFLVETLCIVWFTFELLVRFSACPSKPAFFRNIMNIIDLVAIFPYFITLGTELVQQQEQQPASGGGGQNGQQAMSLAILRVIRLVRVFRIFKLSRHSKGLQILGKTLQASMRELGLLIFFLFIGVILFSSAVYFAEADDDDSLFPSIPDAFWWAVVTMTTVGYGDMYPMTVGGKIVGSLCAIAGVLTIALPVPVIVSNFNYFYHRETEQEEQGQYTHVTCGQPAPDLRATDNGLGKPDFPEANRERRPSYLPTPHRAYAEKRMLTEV

Kv1.2 = target: T5, Kv1.2 (Homo sapiens, UniProt P16389); conditions: for IC50: CHO cells, whole-cell patch clamp, read-out: Potency IC50 (nM) Kv1.2
T5 construct: expressed in transfected cells; host or cells: Chinese Hamster Ovary (CHO)
T5 sequence (P16389 whole entry): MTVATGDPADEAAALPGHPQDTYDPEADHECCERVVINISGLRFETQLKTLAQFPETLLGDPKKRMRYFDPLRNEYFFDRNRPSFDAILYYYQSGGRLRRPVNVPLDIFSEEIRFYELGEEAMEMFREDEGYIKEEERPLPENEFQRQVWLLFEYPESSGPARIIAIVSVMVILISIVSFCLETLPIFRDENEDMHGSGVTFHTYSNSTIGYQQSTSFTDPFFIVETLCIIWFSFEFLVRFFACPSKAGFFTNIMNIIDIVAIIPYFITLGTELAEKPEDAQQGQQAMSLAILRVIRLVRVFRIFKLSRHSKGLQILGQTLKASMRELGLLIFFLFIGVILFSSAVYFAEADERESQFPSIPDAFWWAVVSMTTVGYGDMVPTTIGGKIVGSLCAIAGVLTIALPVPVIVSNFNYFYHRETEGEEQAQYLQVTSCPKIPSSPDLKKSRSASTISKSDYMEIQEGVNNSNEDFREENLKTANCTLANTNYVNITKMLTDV

Row | SMILES | IC50 (Kv1.3) [nM] | IC50 [1] [nM] | IC50 (Kv1.1) [nM] | Selectivity Kv1.1/Kv1.3 (Kv1.1) | IC50 (Kv1.6) [nM] | IC50 (Kv1.2) [nM] | Selectivity Kv1.6/Kv1.3 (Kv1.6) | Selectivity Kv1.2/Kv1.3 (Kv1.2; ratio IC50[Kv1.2]/IC50[Kv1.3])
1 | CC[C@H](C)[C@@H]1NC(=O)[C@H](C)NC(=O)[C@H](CCCCN)NC(=O)[C@H](CC(C)C)NC(=O)[C@@H]2CSSC[C@@H](C(=O)N[C@@H](Cc3ccc(O)cc3)C(=O)N3CCC[C@H]3C(=O)N[C@@H](CCCNC(=N)N)C(=O)O)NC(=O)[C@H](CCCCN)NC(=O)[C@@H]3CSSC[C@H](NC(=O)[C@H](CCC(=O)O)NC(=O)[C@H](C(C)C)NC(=O)[C@H](CO)NC(=O)[C@H](C)NC(=O)[C@H](CO)NC(=O)[C@@H](NC(=O)[C@H](CCCNC(=N)N)NC(=O)[C@H](CCSC)NC(=O)[C@H](CC(=O)O)NC(=O)[C@H](CCSC)NC(=O)[C@@H](N)CCC(N)=O)CSSC[C@H](NC(=O)[C@H](CCCCN)NC(=O)CNC(=O)[C@H](Cc4ccccc4)NC(=O)CNC(=O)[C@H](CCCNC(=N)N)NC(=O)CNC1=O)C(=O)N[C@@H](CCSC)C(=O)N[C@@H](CC(N)=O)C(=O)N[C@@H](CCCCN)C(=O)N[C@@H](CCCCN)C(=O)N3)C(=O)N[C@@H](CCCCN)C(=O)N[C@@H](CCC(N)=O)C(=O)N[C@@H](CCCCN)C(=O)N2 [Compound 2] (H-QMDMRCSASVECKQKCLKAIGRGFGKCMNKKCKCYPR-OH; disulfide 6-27, 12-32, 16-34) | 1.5 | 0.25 | > 3000 | >2000 | 1810 | 97 | – | –
2 | CC[C@H](C)[C@@H]1NC(=O)[C@H](C)NC(=O)[C@H](CCCCN)NC(=O)[C@H](CC(C)C)NC(=O)[C@@H]2CSSC[C@@H](C(=O)N[C@@H](Cc3ccc(O)cc3)C(=O)N3CCC[C@H]3C(=O)N[C@@H](CCCNC(=N)N)C(=O)O)NC(=O)[C@H](CCCCN)NC(=O)[C@@H]3CSSC[C@H](NC(=O)[C@H](CCC(=O)O)NC(=O)[C@H](C(C)C)NC(=O)[C@H](CO)NC(=O)[C@H](C)NC(=O)[C@H](CO)NC(=O)[C@@H](NC(=O)[C@H](CCCNC(=N)N)NC(=O)[C@H](CCSC)NC(=O)[C@H](CCC(=O)O)NC(=O)[C@H](CCSC)NC(=O)[C@@H](N)CC(N)=O)CSSC[C@H](NC(=O)[C@H](CCCCN)NC(=O)CNC(=O)[C@H](Cc4ccccc4)NC(=O)[C@H]([C@@H](C)CC)NC(=O)[C@H](CO)NC(=O)CNC1=O)C(=O)N[C@@H](CCSC)C(=O)N[C@@H](CC(N)=O)C(=O)N[C@@H](CCCCN)C(=O)N[C@@H](CCCCN)C(=O)N3)C(=O)N[C@@H](CCCCN)C(=O)N[C@@H](CCC(N)=O)C(=O)N[C@@H](CCCCN)C(=O)N2 [Compound 12] (H-NMEMRCSASVECKQKCLKAIGSIFGKCMNKKCKCYPR-OH; disulfide 6-27, 12-32, 16-34) | 0.11 | 0.23 | > 3000 | >27600 | > 3000 | 228 | >27600 | –
3 | CC[C@H](C)[C@@H]1NC(=O)[C@H](C)NC(=O)[C@H](CCCCN)NC(=O)[C@H](CC(C)C)NC(=O)[C@@H]2CSSC[C@@H](C(=O)N[C@@H](Cc3ccc(O)cc3)C(=O)N3CCC[C@H]3C(=O)N[C@@H](CCCNC(=N)N)C(N)=O)NC(=O)[C@H](CCCCN)NC(=O)[C@@H]3CSSC[C@H](NC(=O)[C@H](CCC(=O)O)NC(=O)[C@H](C(C)C)NC(=O)[C@H](CO)NC(=O)[C@H](C)NC(=O)[C@H](CO)NC(=O)[C@@H](NC(=O)[C@H](CCCNC(=N)N)NC(=O)[C@H](CCSC)NC(=O)[C@H](CC(=O)O)NC(=O)[C@H](CCSC)NC(=O)[C@@H](N)CC(N)=O)CSSC[C@H](NC(=O)[C@H](CCCCN)NC(=O)CNC(=O)[C@H](Cc4ccccc4)NC(=O)[C@H]([C@@H](C)CC)NC(=O)[C@H](CO)NC(=O)CNC1=O)C(=O)N[C@@H](CCSC)C(=O)N[C@@H](CC(N)=O)C(=O)N[C@@H](CCCCN)C(=O)N[C@@H](CCCCN)C(=O)N3)C(=O)N[C@@H](CCCCN)C(=O)N[C@@H](CCC(N)=O)C(=O)N[C@@H](CC(C)C)C(=O)N2 [Compound 18] (H-NMDMRCSASVECKQLCLKAIGSIFGKCMNKKCKCYPR-NH2; disulfide 6-27, 12-32, 16-34) | 0.24 | 0.19 | > 3000 | >12700 | > 3000 | 256 | >12700 | –
4 | CC[C@H](C)[C@@H]1NC(=O)[C@H](C)NC(=O)[C@H](CCCCN)NC(=O)[C@H](CC(C)C)NC(=O)[C@@H]2CSSC[C@@H](C(=O)N[C@@H](Cc3ccc(O)cc3)C(=O)N3CCC[C@H]3C(=O)N[C@@H](CCCNC(=N)N)C(N)=O)NC(=O)[C@H](CCCCN)NC(=O)[C@@H]3CSSC[C@H](NC(=O)[C@H](CCC(=O)O)NC(=O)[C@H](C(C)C)NC(=O)[C@H](CO)NC(=O)[C@H](C)NC(=O)[C@H](CO)NC(=O)[C@@H](NC(=O)[C@H](CCCNC(=N)N)NC(=O)[C@H](CCSC)NC(=O)[C@H](CC(=O)O)NC(=O)[C@H](CCSC)NC(=O)[C@@H](N)CC(N)=O)CSSC[C@H](NC(=O)[C@H](CCCCN)NC(=O)CNC(=O)[C@H](Cc4ccccc4)NC(=O)[C@H]([C@@H](C)CC)NC(=O)[C@H](CO)NC(=O)[C@H](CCC(=O)O)NC1=O)C(=O)N[C@@H](CCSC)C(=O)N[C@@H](CC(N)=O)C(=O)N[C@@H](CCCCN)C(=O)N[C@@H](CCCCN)C(=O)N3)C(=O)N[C@@H](CCCCN)C(=O)N[C@@H](CCC(N)=O)C(=O)N[C@@H](CCCCN)C(=O)N2 [Compound 22] (H-NMDMRCSASVECKQKCLKAIESIFGKCMNKKCKCYPR-NH2; disulfide 6-27, 12-32, 16-34) | 0.29 | 0.11 | > 3000 | >10200 | > 3000 | 181 | >10200 | –
5 | CC[C@H](C)[C@@H]1NC(=O)[C@H](C)NC(=O)[C@H](CCCCN)NC(=O)[C@H](CC(C)C)NC(=O)[C@@H]2CSSC[C@@H](C(=O)N[C@@H](Cc3ccc(O)cc3)C(=O)N3CCC[C@H]3C(=O)N[C@@H](CCCNC(=N)N)C(N)=O)NC(=O)[C@H](CCCCN)NC(=O)[C@@H]3CSSC[C@H](NC(=O)[C@H](CCC(=O)O)NC(=O)[C@H](C(C)C)NC(=O)[C@H](CO)NC(=O)[C@H](C)NC(=O)[C@H](CCCCN)NC(=O)[C@@H](NC(=O)[C@H](CCCNC(=N)N)NC(=O)[C@H](CCSC)NC(=O)[C@H](CC(=O)O)NC(=O)[C@H](CCSC)NC(=O)[C@@H](N)CC(N)=O)CSSC[C@H](NC(=O)[C@H](CCCCN)NC(=O)CNC(=O)[C@H](Cc4ccccc4)NC(=O)[C@H]([C@@H](C)CC)NC(=O)[C@H](CO)NC(=O)CNC1=O)C(=O)N[C@@H](CCSC)C(=O)N[C@@H](CC(N)=O)C(=O)N[C@@H](CCCCN)C(=O)N[C@@H](CCCCN)C(=O)N3)C(=O)N[C@@H](CCCCN)C(=O)N[C@@H](CCC(N)=O)C(=O)N[C@@H](CCCCN)C(=O)N2 [Compound 25] (H-NMDMRCKASVECKQKCLKAIGSIFGKCMNKKCKCYPR-NH2; disulfide 6-27, 12-32, 16-34) | 0.09 | 0.085 | > 3000 | >34200 | 363 | 67 | – | –
6 | CC[C@H](C)[C@@H]1NC(=O)[C@H](C)NC(=O)[C@H](CCCCN)NC(=O)[C@H](CC(C)C)NC(=O)[C@@H]2CSSC[C@@H](C(=O)N[C@@H](Cc3ccc(O)cc3)C(=O)N3CCC[C@H]3C(=O)N[C@@H](CCCNC(=N)N)C(N)=O)NC(=O)[C@H](CCCCN)NC(=O)[C@@H]3CSSC[C@H](NC(=O)[C@H](CCC(=O)O)NC(=O)[C@H](C(C)C)NC(=O)[C@H](CO)NC(=O)[C@H](C)NC(=O)[C@H](CO)NC(=O)[C@@H](NC(=O)[C@H](CCCNC(=N)N)NC(=O)[C@H](CCSC)NC(=O)[C@H](CC(=O)O)NC(=O)[C@H](CCSC)NC(=O)[C@@H](N)CC(N)=O)CSSC[C@H](NC(=O)[C@H](CCCCN)NC(=O)CNC(=O)[C@H](Cc4ccccc4)NC(=O)[C@H](CCCCN)NC(=O)[C@H](CO)NC(=O)CNC1=O)C(=O)N[C@@H](CCSC)C(=O)N[C@@H](CC(N)=O)C(=O)N[C@@H](CCCCN)C(=O)N[C@@H](CCCCN)C(=O)N3)C(=O)N[C@@H](CCCCN)C(=O)N[C@@H](CCC(N)=O)C(=O)N[C@@H](CCCCN)C(=O)N2 [Compound 34] (H-NMDMRCSASVECKQKCLKAIGSKFGKCMNKKCKCYPR-NH2; disulfide 6-27, 12-32, 16-34) | 0.42 | 0.11 | > 3000 | >7100 | 207 | 100 | – | –
7 | CC[C@H](C)[C@H](NC(=O)[C@H](C)NC(=O)[C@H](C)NC(=O)[C@H](C)N)C(=O)N[C@@H](CO)C(=O)N[C@H]1CSSC[C@@H]2NC(=O)[C@H](CCCCN)NC(=O)CNC(=O)[C@H](CC(N)=O)NC(=O)[C@H](CCCCN)NC(=O)[C@@H]3CSSC[C@@H](C(N)=O)NC(=O)[C@H](Cc4ccc(O)cc4)NC(=O)[C@H](Cc4ccc(O)cc4)NC(=O)[C@@H]4CSSC[C@H](NC(=O)[C@H](CCCCN)NC(=O)[C@@H]5CCCN5C(=O)[C@@H]5CCCN5C(=O)[C@H](CSSC[C@H](NC(=O)[C@H](CCCCN)NC(=O)[C@H](CCCNC(=N)N)NC(=O)[C@H](CC(N)=O)NC(=O)[C@H](CCSC)NC2=O)C(=O)N[C@@H](CCCCN)C(=O)N4)NC(=O)[C@H](CCC(=O)O)NC(=O)[C@@H]2CCCN2C(=O)[C@H](CO)NC(=O)CNC(=O)[C@H](C(C)C)NC1=O)C(=O)N[C@@H](CCCNC(=N)N)C(=O)N[C@@H](C)C(=O)N[C@@H](CCC(N)=O)C(=O)NCC(=O)N3 [Vm24, reference compound] | 0.15 | – | 0.097 | 0.65 | 21 | 4.7 | 139 | 31
